test system: COS-1 cells; test: In vitro mammalian cytotoxicity assay (Resazurin)

Row | SMILES | In Vitro Cytotoxicity
1 | CN(C)[C@@H]1C(O)=C(C(N)=O)C(=O)[C@@]2(C#N)C(O)=C3C(=O)c4c(O)cccc4[C@H](OSC(F)(F)C(F)(F)F)[C@@]3(N)[C@H](O)[C@@]12N [AS] | ** (toxicities less than 25 μg/mL are represented by **)
2 | CCSC(=O)/C=C/c1ccc2c(c1O)C(=O)C1=C(O)[C@]3(C#N)C(=O)C(C(N)=O)=C(O)[C@@H](N(C)C)[C@]3(N)[C@@H](O)[C@]1(N)[C@H]2O [AT] | ** (toxicities less than 25 μg/mL are represented by **)
3 | CN(C)[C@@H]1C(O)=C(C(N)=O)C(=O)[C@@]2(C#N)C(O)=C3C(=O)c4c(O)cccc4C(N)[C@@]3(N)[C@H](OC(=O)CNC(=O)OC(C)(C)C)[C@@]12N (stereo partly shown) [AU] | ** (toxicities less than 25 μg/mL are represented by **)
4 | CN(C)[C@@H]1C(O)=C(C(N)=O)C(=O)[C@@]2(C#N)C(O)=C3C(=O)c4c(ccc(/C=C/C(=O)O)c4O)[C@H](O)[C@@]3(N)[C@H](O)[C@@]12N [AV] | ** (toxicities less than 25 μg/mL are represented by **)
5 | COC(=O)/C=C/c1ccc2c(c1O)C(=O)C1=C(O)[C@]3(C#N)C(=O)C(C(N)=O)=C(O)[C@@H](N(C)C)[C@]3(N)[C@@H](O)[C@]1(N)C2N (stereo partly shown) [AW] | ** (toxicities less than 25 μg/mL are represented by **)
6 | CN(C)[C@@H]1C(O)=C(C(N)=O)C(=O)[C@@]2(C#N)C(O)=C3C(=O)c4c(ccc(-c5ccccc5)c4O)C(N)[C@@]3(N)[C@H](O)[C@@]12N (stereo partly shown) [AX] | ** (toxicities less than 25 μg/mL are represented by **)
7 | CN(C)[C@@H]1C(O)=C(C(N)=O)C(=O)[C@@]2(C#N)C(O)=C3C(=O)c4c(ccc(C5C=CCC5)c4O)C(N)[C@@]3(N)[C@H](O)[C@@]12N (stereo partly shown) [AY] | ** (toxicities less than 25 μg/mL are represented by **)
8 | COc1ccc(-c2ccc3c(c2O)C(=O)C2=C(O)[C@]4(C#N)C(=O)C(C(N)=O)=C(O)[C@@H](N(C)C)[C@]4(N)[C@@H](O)[C@]2(N)C3N)cc1 (stereo partly shown) [AZ] | ** (toxicities less than 25 μg/mL are represented by **)
9 | CC(=O)OCCCC(C)(C)c1ccc2c(c1O)C(=O)C1=C(O)[C@]3(C#N)C(=O)C(C(N)=O)=C(O)[C@@H](N(C)C)[C@]3(N)[C@@H](O)[C@]1(N)[C@H]2N [BA] | ** (toxicities less than 25 μg/mL are represented by **)
10 | CN(C)[C@@H]1C(O)=C(C(N)=O)C(=O)[C@@]2(C#N)C(O)=C3C(=O)c4c(ccc(C(C)(C)C)c4O)[C@H](N)[C@@]3(N)[C@H](O)[C@@]12N [BB] | ** (toxicities less than 25 μg/mL are represented by **)
11 | CCC(=O)O[C@H]1[C@@]2(N)C(=C(O)[C@]3(C#N)C(=O)C(C(N)=O)=C(O)[C@@H](N(C)C)[C@]13N)C(=O)c1c(ccc(C(C)(C)C)c1O)[C@@H]2N [BC] | ** (toxicities less than 25 μg/mL are represented by **)
12 | CCCC(C)(C)NC(=O)C1=C(O)[C@@H](N(C)C)[C@]2(N)[C@@H](O)[C@@]3(N)C(=C(O)[C@]2(C#N)C1=O)C(=O)c1c(O)cccc1[C@@H]3N [BD] | ** (toxicities less than 25 μg/mL are represented by **)
13 | CCCC(C)(C)NC(=O)C1=C(O)[C@@H](N(C)C)[C@]2(N)[C@@H](O)[C@@]3(N)C(=C(O)[C@]2(C#N)C1=O)C(=O)c1c(O)ccc(N(C)C)c1[C@@H]3N [BE] | ** (toxicities less than 25 μg/mL are represented by **)
14 | CN(C)[C@@H]1C(O)=C(C(N)=O)C(=O)[C@@]2(C#N)C(O)=C3C(=O)c4c(ccc(C(C)(C)CCC[N+](=O)[O-])c4O)[C@H](N)[C@@]3(N)[C@H](O)[C@@]12N [BF] | ** (toxicities less than 25 μg/mL are represented by **)
15 | CN(C)[C@@H]1C(O)=C(C(N)=O)C(=O)[C@@]2(OC(=O)CC(C)(C)C)C(O)=C3C(=O)c4c(ccc(NC(=O)NC(C)(C)C)c4O)[C@H](N)[C@@]3(N)[C@H](O)[C@@]12N [BG] | ** (toxicities less than 25 μg/mL are represented by **)
16 | CN(C)c1cc(/C=C/c2ccccc2)c(O)c2c1[C@H](N)[C@]1(N)C(=C(O)[C@]3(C#N)C(=O)C(C(N)=O)=C(O)[C@@H](N(C)C)[C@]3(N)[C@H]1O)C2=O [BH] | ** (toxicities less than 25 μg/mL are represented by **)
17 | CN(C)[C@@H]1C(O)=C(C(N)=O)C(=O)[C@@]2(C#N)C(O)=C3C(=O)c4c(ccc(NC(=O)OCC(C)(C)C)c4O)[C@H](N)[C@@]3(N)[C@H](O)[C@@]12N [BI] | ** (toxicities less than 25 μg/mL are represented by **)
18 | CN(C)[C@@H]1C(O)=C(C(N)=O)C(=O)[C@@]2(C#N)C(O)=C3C(=O)c4c(ccc(NC(=O)Nc5cccc6ccccc56)c4O)[C@H](N)[C@@]3(N)[C@H](OC(=O)Nc3ccccc3)[C@@]12N [BJ] | ** (toxicities less than 25 μg/mL are represented by **)
19 | CN(C)[C@@H]1C(O)=C(C(N)=O)C(=O)[C@@]2(C#N)C(O)=C3C(=O)c4c(ccc(NC(=O)OCC5c6ccccc6-c6ccccc65)c4O)[C@H](N)[C@@]3(N)[C@H](O)[C@@]12N [BK] | ** (toxicities less than 25 μg/mL are represented by **)

Row | SMILES | In Vitro Cytotoxicity
20 | CCC(=O)O[C@H]1[C@@]2(N)C(=C(O)[C@]3(C#N)C(=O)C(C(N)=O)=C(O)[C@@H](N(C)C)[C@]13N)C(=O)c1c(ccc(NC(=O)Nc3cccc4ccccc34)c1O)[C@@H]2N [BL] | * (toxicities greater than >25 μg/ml are represented by *)
21 | CN(C)[C@@H]1C(O)=C(C(N)=O)C(=O)[C@@]2(C#N)C(O)=C3C(=O)c4c(O)cccc4[C@H](N)[C@@]3(N)[C@H](OC(=O)Nc3ccc(O)cc3[N+](=O)O)[C@@]12N [BN] | * (toxicities greater than >25 μg/ml are represented by *)
22 | C=CC(O)O[C@H]1[C@@]2(N)C(=C(O)[C@]3(C#N)C(=O)C(C(N)=O)=C(O)[C@@H](N(C)C)[C@]13N)C(=O)c1c(O)cccc1[C@@H]2N (stereo partly shown) [BO] | ** (toxicities less than 25 μg/mL are represented by **)
23 | CN(C)[C@@H]1C(O)=C(C(N)=O)C(=O)[C@@]2(C#N)C(O)=C3C(=O)c4c(ccc(N(Cc5ccccc5)Cc5ccccc5)c4O)[C@H](N)[C@@]3(N)[C@H](O)[C@@]12N [BP] | ** (toxicities less than 25 μg/mL are represented by **)
24 | CN(C)[C@@H]1C(O)=C(C(N)=O)C(=O)[C@@]2(C#N)C(O)=C3C(=O)c4c(O)cccc4[C@H](N)[C@@]3(N)[C@H](OC(=O)CCN3CCCC3)[C@@]12N [BQ] | ** (toxicities less than 25 μg/mL are represented by **)
25 | CN(C)[C@@H]1C(O)=C(C(N)=O)C(=O)[C@@]2(C#N)C(O)=C3C(=O)c4c(ccc(-c5ccc(F)cc5)c4O)[C@H](N)[C@@]3(N)[C@H](O)[C@@]12N [BR] | ** (toxicities less than 25 μg/mL are represented by **)
26 | CN(C)[C@@H]1C(O)=C(C(N)=O)C(=O)[C@@]2(C#N)C(O)=C3C(=O)c4c(O)cccc4[C@H](N)[C@@]3(N)[C@H]([S+](N)[O-])[C@@]12N (stereo partly shown) [BS] | ** (toxicities less than 25 μg/mL are represented by **)
27 | CN(C)[C@@H]1C(O)=C(C(N)=O)C(=O)[C@@]2(C#N)C(O)=C3C(=O)c4c(ccc(-c5cc6ccccc6[nH]5)c4O)[C@H](N)[C@@]3(N)[C@H]([S+](N)[O-])[C@@]12N (stereo partly shown) [BT] | ** (toxicities less than 25 μg/mL are represented by **)
28 | CN(C)[C@@H]1C(O)=C(C(N)=O)C(=O)[C@@]2(C#N)C(O)=C3C(=O)c4c(O)cccc4/C(=C\c4ccc(F)cc4)[C@@]3(N)[C@H]([S+](N)[O-])[C@@]12N (stereo partly shown) [BU] | ** (toxicities less than 25 μg/mL are represented by **)
29 | CN(C)[C@@H]1C(O)=C(C(N)=O)C(=O)[C@@]2(C#N)C(O)=C3C(=O)c4c(O)cccc4[C@H](N)[C@@]3(N)[C@H](OC(=O)CN)[C@@]12N [BV] | ** (toxicities less than 25 μg/mL are represented by **)
30 | CN(C)[C@@H]1C(O)=C(C(N)=O)C(=O)[C@@]2(C#N)C(O)=C3C(=O)c4c(ccc(NC(=O)Nc5ccc(Cl)cc5C(F)(F)F)c4O)[C@H](N)[C@@]3(N)[C@H]([S+](N)[O-])[C@@]12N (stereo partly shown) [BW] | ** (toxicities less than 25 μg/mL are represented by **)
31 | CN(C)[C@@H]1C(O)=C(C(N)=O)C(=O)[C@@]2(C#N)C(O)=C3C(=O)c4c(O)cccc4/C(=C\c4ccc(Cl)cc4)[C@@]3(N)[C@H]([S+](N)[O-])[C@@]12N (stereo partly shown) [BY] | ** (toxicities less than 25 μg/mL are represented by **)
32 | CN(C)CC(=O)O[C@H]1[C@@]2(N)C(=C(O)[C@]3(C#N)C(=O)C(C(N)=O)=C(O)[C@@H](N(C)C)[C@]13N)C(=O)c1c(O)cccc1[C@@H]2N [BZ] | ** (toxicities less than 25 μg/mL are represented by **)
33 | CN(C)[C@@H]1C(O)=C(C(N)=O)C(=O)[C@@]2(C#N)C(O)=C3C(=O)c4c(ccc(NC5CCCC5)c4O)[C@H](N)[C@@]3(N)[C@H]([S+](N)[O-])[C@@]12N (stereo partly shown) [CA] | ** (toxicities less than 25 μg/mL are represented by **)
34 | CN(C)c1cc(NC(=O)Nc2ccc(Cl)cc2C(F)(F)F)c(O)c2c1C[C@@]1(N)C[C@@]3(N)[C@H](N(C)C)C(O)=C(C(N)=O)C(=O)[C@@]3(C#N)C(O)=C1C2=O [CB] | ** (toxicities less than 25 μg/mL are represented by **)
35 | CN(C)c1cc(/C=C/c2ccc(F)cc2)c(O)c2c1C[C@@]1(N)C[C@@]3(N)[C@H](N(C)C)C(O)=C(C(N)=O)C(=O)[C@@]3(C#N)C(O)=C1C2=O [CD] | ** (toxicities less than 25 μg/mL are represented by **)
36 | CN(C)[C@@H]1C(O)=C(C(N)=O)C(=O)[C@@]2(C#N)C(O)=C3C(=O)c4c(ccc(/C=C/c5ccc(F)cc5)c4O)[C@H](N)[C@@]3(N)[C@H](O)[C@@]12N [CE] | ** (toxicities less than 25 μg/mL are represented by **)
37 | CN(C)c1cc(NC(=O)Nc2cccc3ccccc23)c(O)c2c1C[C@@]1(N)C[C@@]3(N)[C@H](N(C)C)C(O)=C(C(N)=O)C(=O)[C@@]3(C#N)C(O)=C1C2=O [CF] | ** (toxicities less than 25 μg/mL are represented by **)

Source: patent US20050070510A1, “Substituted tetracycline compounds as synergistic antifungal agents” (Paratek Pharmaceuticals, Inc., priority 2001, published 2005)
